This passage reports Activity results from ChEMBL document CHEMBL2074026, “Novel experimental parameters to quantify the modulation of absorptive and secretory transport of compounds by P-glycoprotein in cell culture models of intestinal epithelium” (Pharm Res, 2003).

Common to all, as to type: functional, cell-based
For series [1], the target named is T1, ATP-dependent translocase ABCB1 (Homo sapiens, UniProt P08183). Description: TP_TRANSPORTER: transepithelial transport of Saquinavir at a concentration of 20 uM in Caco-2 cells. Conditions: caco-2, 20 µM.
Series [2] deals with T1, ATP-dependent translocase ABCB1. Description: TP_TRANSPORTER: transepithelial transport of Saquinavir at a concentration of 20 uM in MDR1-expressing MDCK cells. The following applies: dog.
Series [3] has the same target. Description: TP_TRANSPORTER: transepithelial transport of Colchicine at a concentration of 25 uM in MDR1-expressing MDCK cells. Conditions: dog.
The target is the same in series [4]. The series can be described thus: TP_TRANSPORTER: transepithelial transport of Colchicine at a concentration of 25 uM in Caco-2 cells. The following applies: caco-2, 25 µM. (In general: Caco-2 monolayers are a common model of the intestinal barrier.)
Series [5] has the same target. The series can be described thus: TP_TRANSPORTER: transepithelial transport of Methylprednisolone at a concentration of 20 uM in Caco-2 cells. Conditions: caco-2, 20 µM.
For series [6] the target is unchanged. Description: TP_TRANSPORTER: transepithelial transport of Methylprednisolone at a concentration of 20 uM in MDR1-expressing MDCK cells. The following applies: dog.
Series [7] shares this target. The series can be described thus: TP_TRANSPORTER: transepithelial transport of Digoxin at a concentration of 10 uM in MDR1-expressing MDCK cells. The following applies: dog.
The target is the same in series [8]. Description: TP_TRANSPORTER: transepithelial transport of Digoxin at a concentration of 10 uM in Caco-2 cells.
For series [9] the target is unchanged. The series can be described thus: TP_TRANSPORTER: transepithelial transport in the presence of Vinblastine at 0.1 uM in Caco-2 cells.
The target is the same in series [10]. The series can be described thus: TP_TRANSPORTER: transepithelial transport of Vinblastine at a concentration of 0.1 uM in MDR1-expressing MDCK cells. Conditions: dog.
Series [11] shares this target. Description: TP_TRANSPORTER: transepithelial transport of Ranitidine at a concentration of 100 uM in MDR1-expressing MDCK cells. Conditions: dog.
For series [12] the target is unchanged. Description: TP_TRANSPORTER: transepithelial transport of Ranitidine at a concentration of 100 uM in Caco-2 cells. Conditions: caco-2, 100 µM.
For series [13] the target is unchanged. The series can be described thus: TP_TRANSPORTER: transepithelial transport of Rhodamine at a concentration of 10 uM in MDR1-expressing MDCK cells. The following applies: dog.
The target is the same in series [14]. The series can be described thus: TP_TRANSPORTER: transepithelial transport of Rhodamine at a concentration of 10 uM in Caco-2 cells.
Series [15] shares this target. The series can be described thus: TP_TRANSPORTER: transepithelial transport of Acebutolol at a concentration of 20 uM in Caco-2 cells. Conditions: caco-2, 20 µM.
For series [16] the target is unchanged. Description: TP_TRANSPORTER: transepithelial transport of Acebutolol at a concentration of 20 uM in MDR1-expressing MDCK cells. The following applies: dog.
Series [17] shares this target. Description: TP_TRANSPORTER: transepithelial transport of Doxorubicin at a concentration of 10 uM in MDR1-expressing MDCK cells. The following applies: dog.
Series [18] has the same target. Description: TP_TRANSPORTER: transepithelial transport of Doxorubicin at a concentration of 10 uM in Caco-2 cells.
For series [19] the target is unchanged. The series can be described thus: TP_TRANSPORTER: transepithelial transport of Taxol at a concentration of 10 uM in MDR1-expressing MDCK cells. The following applies: dog.
Series [20] shares this target. Description: TP_TRANSPORTER: transepithelial transport of Taxol at a concentration of 10 uM in Caco-2 cells.
The target is the same in series [21]. Description: TP_TRANSPORTER: transepithelial transport of Prednisolone at a concentration of 20 uM in MDR1-expressing MDCK cells. Conditions: dog.

Each structure is given as a SMILES string.

T1 sequence (P08183 whole entry): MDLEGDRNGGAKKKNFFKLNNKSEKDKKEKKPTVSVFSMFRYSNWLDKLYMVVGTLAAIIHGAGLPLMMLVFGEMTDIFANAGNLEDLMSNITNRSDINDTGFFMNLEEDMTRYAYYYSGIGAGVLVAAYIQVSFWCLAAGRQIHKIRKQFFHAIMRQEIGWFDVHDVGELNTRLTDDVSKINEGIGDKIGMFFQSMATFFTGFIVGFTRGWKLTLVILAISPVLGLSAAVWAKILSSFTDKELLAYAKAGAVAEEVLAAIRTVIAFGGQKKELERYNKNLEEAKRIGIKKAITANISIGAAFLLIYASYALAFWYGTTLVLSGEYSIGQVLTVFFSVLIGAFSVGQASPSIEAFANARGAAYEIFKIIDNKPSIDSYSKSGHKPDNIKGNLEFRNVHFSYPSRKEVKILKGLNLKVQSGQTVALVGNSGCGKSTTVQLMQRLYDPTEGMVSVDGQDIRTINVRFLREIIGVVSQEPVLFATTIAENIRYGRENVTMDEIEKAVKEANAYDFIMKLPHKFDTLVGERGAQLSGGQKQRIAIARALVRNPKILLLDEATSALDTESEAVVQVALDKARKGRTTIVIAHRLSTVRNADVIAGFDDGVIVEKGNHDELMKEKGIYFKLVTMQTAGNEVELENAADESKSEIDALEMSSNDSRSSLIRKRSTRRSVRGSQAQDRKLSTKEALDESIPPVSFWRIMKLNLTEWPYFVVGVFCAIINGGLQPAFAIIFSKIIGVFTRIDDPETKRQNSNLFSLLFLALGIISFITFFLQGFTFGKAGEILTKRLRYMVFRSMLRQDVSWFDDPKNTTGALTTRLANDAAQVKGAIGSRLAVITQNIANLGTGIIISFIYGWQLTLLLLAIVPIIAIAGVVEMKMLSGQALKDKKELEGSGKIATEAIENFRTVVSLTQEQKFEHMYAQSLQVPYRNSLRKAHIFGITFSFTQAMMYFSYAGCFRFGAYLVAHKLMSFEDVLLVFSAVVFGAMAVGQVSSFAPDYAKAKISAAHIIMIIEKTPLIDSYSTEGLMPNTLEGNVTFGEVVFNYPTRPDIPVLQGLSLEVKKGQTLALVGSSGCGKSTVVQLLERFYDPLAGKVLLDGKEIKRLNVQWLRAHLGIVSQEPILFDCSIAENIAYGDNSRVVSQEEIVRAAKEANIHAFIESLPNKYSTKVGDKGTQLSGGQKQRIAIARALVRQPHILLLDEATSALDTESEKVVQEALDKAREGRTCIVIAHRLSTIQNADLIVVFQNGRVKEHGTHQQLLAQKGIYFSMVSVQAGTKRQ

Regarding `CC(C)(C)NC(=O)[C@@H]1C[C@@H]2CCCC[C@@H]2CN1C[C@@H](O)[C@H](Cc1ccccc1)NC(=O)[C@H](CC(N)=O)NC(=O)c1ccc2ccccc2n1`, the Activity entry in series [1] and in [2] was “substrate [+]” each time.

In the case of `COc1cc2c(c(OC)c1OC)-c1ccc(OC)c(=O)cc1[C@@H](NC(C)=O)CC2` [COLCHICINE], the Activity entry in [3] and in [4] was “substrate [+]” in each case.

With `C[C@H]1C[C@@H]2[C@H]([C@@H](O)C[C@@]3(C)[C@H]2CC[C@]3(O)C(=O)CO)[C@@]2(C)C=CC(=O)C=C12` [METHYLPREDNISOLONE], the Activity entry in series [5] and in series [6] was “substrate [+]” each time.

For the molecule `C[C@H]1O[C@@H](O[C@H]2[C@@H](O)C[C@H](O[C@H]3[C@@H](O)C[C@H](O[C@H]4CC[C@@]5(C)[C@H](CC[C@@H]6[C@@H]5C[C@@H](O)[C@]5(C)[C@@H](C7=CC(=O)OC7)CC[C@]65O)C4)O[C@@H]3C)O[C@@H]2C)C[C@H](O)[C@@H]1O` [DIGOXIN], the Activity entry in series [7] and in series [8] was “substrate [+]” throughout.

In the case of `CC[C@]1(O)C[C@@H]2CN(CCc3c([nH]c4ccccc34)[C@@](C(=O)OC)(c3cc4c(cc3OC)N(C)[C@H]3[C@@](O)(C(=O)OC)[C@H](OC(C)=O)[C@]5(CC)C=CCN6CC[C@]43[C@@H]65)C2)C1` [VINBLASTINE], the Activity entry in series [9] and in series [10] was “substrate [+]” in each case.

For the molecule `CNC(=C[N+](=O)[O-])NCCSCc1ccc(CN(C)C)o1` [RANITIDINE], the Activity result in [11] and in series [12] was “substrate [+]” in each case.

As for `CCN(CC)c1ccc2c(-c3ccccc3C(=O)O)c3ccc(=[N+](CC)CC)cc-3oc2c1.[Cl-]` [RHODAMINE], the Activity result in [13] and in [14] was “substrate [+]” in each case.

Take `CCCC(=O)Nc1ccc(OCC(O)CNC(C)C)c(C(C)=O)c1` (stereo unspecified) [ACEBUTOLOL]: the Activity entry in series [15] and in [16] was “substrate [+]” in each case.

In the case of `COc1cccc2c1C(=O)c1c(O)c3c(c(O)c1C2=O)C[C@@](O)(C(=O)CO)C[C@@H]3O[C@H]1C[C@H](N)[C@H](O)[C@H](C)O1` [DOXORUBICIN], the Activity result in [17] and in series [18] was “substrate [+]” throughout.

As to `CC(=O)O[C@H]1C(=O)[C@@]2(C)[C@H]([C@H](OC(=O)c3ccccc3)[C@]3(O)C[C@H](OC(=O)[C@H](O)[C@@H](NC(=O)c4ccccc4)c4ccccc4)C(C)=C1C3(C)C)[C@]1(OC(C)=O)CO[C@@H]1C[C@@H]2O` [PACLITAXEL], the Activity entry in series [19] and in series [20] was “substrate [+]” throughout.

On to `C[C@]12C=CC(=O)C=C1CC[C@@H]1[C@@H]2[C@@H](O)C[C@@]2(C)[C@H]1CC[C@]2(O)C(=O)CO` [PREDNISOLONE], for which the Activity result in series [21] was “substrate [+]”.
